Measured values: US11596644B2, “Method for treating post-prandial hypoglycemia” (AVOLYNT, priority 2018, dated 2023)
Marks after values point to notes of the source that are not given here.

Experiments:
[1] = tested on: STZ-induced diabetic rats; test: OGTT in STZ-induced diabetic rats (Example 8); format: in vivo, rat; conditions: for Plasma glucose 0 hr: before dosing; for Plasma glucose 0 hr / Plasma glucose 0.5 hr / Plasma glucose 1 hr / Plasma glucose 2 hr / Plasma glucose 3 hr / ΔAUC (0-1) / ΔAUC (0-1) (% of Control): glucose 2 g/kg, mean ± S.E.M.; for PG elevation after glucose administration: 0.03 and 0.1 mg/kg oral, OGTT 2 g/kg
Procedure: (§1) Study in diabetic rats with glucose. Diabetic rats, induced by intravenous injection of streptozotocin (STZ; 40 mg/kg), were used to determining plasma glucose concentration (PG) 1 hr after oral glucose tolerance test (OGTT). […] Blood was collected via the caudal artery immediately before dosing and 0.5, 1, 2, and 3 hr after dosing. The glucose concentration measurement in plasma used Glucose CII-Test Wako kit (Wako Pure Chemicals Industries, Ltd., Osaka, Japan). The variables used for efficacy assessment were the measurement values of the plasma glucose concentration and the area under the curve for plasma glucose concentration through 1 hr after loading (ΔAUC0-1 hr). The ΔAUC0-1 hr for plasma glucose was calculated based on the trapezoid method using the change of plasma glucose concentrations from pre-value (0 hr).

[2] = tested on: STZ-induced diabetic rats; test: Oral mixed-carbohydrate tolerance test (OMCTT) in STZ-induced diabetic rats (Example 9); format: in vivo, rat; conditions: for Plasma glucose 0 hr: before dosing; for Plasma glucose 0 hr / Plasma glucose 0.5 hr / Plasma glucose 1 hr / Plasma glucose 2 hr / Plasma glucose 3 hr / ΔAUC (0-1) / ΔAUC (0-1) (% of Control): mixed-carbohydrate load, mean ± S.E.M.; for PG elevation after glucose administration: 0.03 and 0.1 mg/kg oral, OMCTT
Procedure: as §1, with “with mixed carbohydrates.” for “with glucose.”, “oral mixed-carbohydrate” for “oral glucose”, “test (OMCTT).” for “test (OGTT).”

[3] = tested on: healthy adult male volunteers; test: Repeat dose study in humans, pharmacodynamic parameters after meals; format: in vivo, human; conditions: repeat dosing
Procedure: Repeat dose study in humans. Oral doses of 2 mg, 5 mg, 10 mg, 20 mg, of mizagliflozin, placebo or miglitol 50 mg per dose three times daily to healthy adult male volunteers by a randomized, placebo-controlled, parallel-group, double-blind comparison method. The dose was orally administered with approximately 150 mL of water once daily immediately before breakfast on Days 1 and 13, and three times daily immediately before every meal on Days 3 to 12.
Changes in the following parameters and ΔAUC from 0 to t* hours after breakfast, lunch, and evening meal were measured: Blood glucose level, Serum insulin concentration, Blood active GLP-1 concentration, and Blood total GIP concentration, where t=0.5, 1, 1.5, 2, and 3 (t=0.5, 1, 1.5, 2, 3, and 5 only after breakfast).
In the miglitol group, hyperglycemia was suppressed after breakfast, lunch, and evening meal, as compared to the placebo group. […] These pharmacodynamic effects more or less persisted during 10-day repeated administration. There was no correlation between plasma mizagliflozin concentration and the pharmacodynamic effects. Measurements in Tables 5-8 were performed on Day 3 after breakfast.

[4] = 50 mg per dose, Day 3 after breakfast

Row | SMILES | Plasma glucose 0 hr ([1]; 0.03 mg/kg oral) [mg/dL] | Plasma glucose 0.5 hr ([1]; 0.03 mg/kg oral) [mg/dL] | Plasma glucose 1 hr ([1]; 0.03 mg/kg oral) [mg/dL] | Plasma glucose 2 hr ([1]; 0.03 mg/kg oral) [mg/dL] | Plasma glucose 3 hr ([1]; 0.03 mg/kg oral) [mg/dL] | ΔAUC (0-1) ([1]; 0.03 mg/kg oral) [mg·h/dL] | ΔAUC (0-1) (% of Control) ([1]; 0.03 mg/kg oral) | Plasma glucose 0 hr ([1]; 0.1 mg/kg oral) | Plasma glucose 0.5 hr ([1]; 0.1 mg/kg oral) | Plasma glucose 1 hr ([1]; 0.1 mg/kg oral) | Plasma glucose 2 hr ([1]; 0.1 mg/kg oral) | Plasma glucose 3 hr ([1]; 0.1 mg/kg oral) | ΔAUC (0-1) ([1]; 0.1 mg/kg oral) | ΔAUC (0-1) (% of Control) ([1]; 0.1 mg/kg oral) | PG elevation after glucose administration [1] | Plasma glucose 0 hr ([2]; 0.03 mg/kg oral) [mg/dL] | Plasma glucose 0.5 hr ([2]; 0.03 mg/kg oral) | Plasma glucose 1 hr ([2]; 0.03 mg/kg oral) [mg/dL] | Plasma glucose 2 hr ([2]; 0.03 mg/kg oral) [mg/dL] | PG elevation after glucose administration [2] | also measured
1 | Cc1cc(OCCCN)ccc1Cc1c(O[C@@H]2O[C@H](CO)[C@@H](O)[C@H](O)[C@H]2O)n[nH]c1C(C)C [KGA-2586] | 128 ± 4 | 351 ± 22 | 350 ± 32 | 154 ± 20 | 86 ± 4 | 167 ± 20 | 86 ± 10 % of Control | 121 ± 8 ^ mg/dL | 236 ± 18^z mg/dL | 257 ± 24^x mg/dL | 193 ± 21^x mg/dL | 105 ± 12^ mg/dL | 91 ± 11^y mg · dL^−1 · hr | 47 ± 6^y % of Control | inhibited PG elevation after glucose administration dose dependently | 118 ± 8 | 269 ± 5^y mg/dL | 235 ± 8 | 112 ± 11 | inhibited PG elevation after glucose administration dose dependently | Plasma glucose 3 hr ([2]; 0.03 mg/kg oral): 108 ± 10 mg/dL; ΔAUC (0-1) ([2]; 0.03 mg/kg oral): 105 ± 4^x mg · dL^−1 · hr; ΔAUC (0-1) (% of Control) ([2]; 0.03 mg/kg oral): 64 ± 2^x % of Control; Plasma glucose 0 hr ([2]; 0.1 mg/kg oral): 126 ± 7^ mg/dL; Plasma glucose 0.5 hr ([2]; 0.1 mg/kg oral): 213 ± 11^z mg/dL; Plasma glucose 1 hr ([2]; 0.1 mg/kg oral): 215 ± 13 mg/dL; Plasma glucose 2 hr ([2]; 0.1 mg/kg oral): 144 ± 12 mg/dL; Plasma glucose 3 hr ([2]; 0.1 mg/kg oral): 108 ± 8^ mg/dL; ΔAUC (0-1) ([2]; 0.1 mg/kg oral): 65 ± 6^z mg · dL^−1 · hr; ΔAUC (0-1) (% of Control) ([2]; 0.1 mg/kg oral): 40 ± 4^z % of Control
2 | Cc1cc(OCCCNCC(N)=O)ccc1Cc1c(O[C@@H]2O[C@H](CO)[C@@H](O)[C@H](O)[C@H]2O)n[nH]c1C(C)C [KGA-2588] | 137 ± 6 | 351 ± 29 | 363 ± 48 | 185 ± 25 | 101 ± 4 | 163 ± 23 | 84 ± 12 % of Control | 128 ± 8 ^ mg/dL | 249 ± 32^y mg/dL | 286 ± 51^ mg/dL | 221 ± 33^x mg/dL | 145 ± 5^z mg/dL | 100 ± 23^x mg · dL^−1 · hr | 51 ± 12^x % of Control | inhibited PG elevation after glucose administration dose dependently | 120 ± 3 | 291 ± 22 mg/dL | 248 ± 17 | 109 ± 7 | inhibited PG elevation after glucose administration dose dependently | Plasma glucose 3 hr ([2]; 0.03 mg/kg oral): 100 ± 6 mg/dL; ΔAUC (0-1) ([2]; 0.03 mg/kg oral): 117 ± 14 mg·h/dL; ΔAUC (0-1) (% of Control) ([2]; 0.03 mg/kg oral): 72 ± 9 % of Control; Plasma glucose 0 hr ([2]; 0.1 mg/kg oral): 123 ± 8 mg/dL; Plasma glucose 0.5 hr ([2]; 0.1 mg/kg oral): 258 ± 25^x mg/dL; Plasma glucose 1 hr ([2]; 0.1 mg/kg oral): 224 ± 23 mg/dL; Plasma glucose 2 hr ([2]; 0.1 mg/kg oral): 132 ± 4 mg/dL; Plasma glucose 3 hr ([2]; 0.1 mg/kg oral): 114 ± 6 mg/dL; ΔAUC (0-1) ([2]; 0.1 mg/kg oral): 93 ± 13 mg·h/dL; ΔAUC (0-1) (% of Control) ([2]; 0.1 mg/kg oral): 57 ± 8 % of Control
3 | Cc1cc(OCCCNCCC(N)=O)ccc1Cc1c(O[C@@H]2O[C@H](CO)[C@@H](O)[C@H](O)[C@H]2O)n[nH]c1C(C)C [KGA-2727] | 120 ± 9 | 354 ± 34 | 342 ± 42 | 155 ± 24 | 85 ± 6 | 172 ± 21 | 89 ± 11 % of Control | 116 ± 6 ^ mg/dL | 233 ± 15^y mg/dL | 262 ± 19^ mg/dL | 194 ± 12^x mg/dL | 102 ± 16^ mg/dL | 95 ± 14^y mg · dL^−1 · hr | 49 ± 7^y % of Control | inhibited PG elevation after glucose administration dose dependently | 114 ± 7 | 317 ± 28 mg/dL | 250 ± 30 | 114 ± 5 | inhibited PG elevation after glucose administration dose dependently | Plasma glucose 3 hr ([2]; 0.03 mg/kg oral): 104 ± 7 mg/dL; ΔAUC (0-1) ([2]; 0.03 mg/kg oral): 135 ± 20 mg·h/dL; ΔAUC (0-1) (% of Control) ([2]; 0.03 mg/kg oral): 83 ± 12 % of Control; Plasma glucose 0 hr ([2]; 0.1 mg/kg oral): 124 ± 8 mg/dL; Plasma glucose 0.5 hr ([2]; 0.1 mg/kg oral): 240 ± 17^y mg/dL; Plasma glucose 1 hr ([2]; 0.1 mg/kg oral): 248 ± 29 mg/dL; Plasma glucose 2 hr ([2]; 0.1 mg/kg oral): 133 ± 4 mg/dL; Plasma glucose 3 hr ([2]; 0.1 mg/kg oral): 106 ± 9 mg/dL; ΔAUC (0-1) ([2]; 0.1 mg/kg oral): 89 ± 12 mg·h/dL; ΔAUC (0-1) (% of Control) ([2]; 0.1 mg/kg oral): 55 ± 7 % of Control
4 | CC(C)c1[nH]nc(O[C@@H]2O[C@H](CO)[C@@H](O)[C@H](O)[C@H]2O)c1Cc1ccc(CCCC(=O)NC(C)(C)C(=O)N2CCNCC2)cc1 [KGA-2891] |  |  |  |  |  |  |  |  |  |  |  |  |  |  | inhibited PG elevation after glucose administration dose dependently |  |  |  |  | inhibited PG elevation after glucose administration dose dependently | 
5 | OCCN1C[C@H](O)[C@@H](O)[C@H](O)[C@H]1CO [Miglitol, miglitol, reference compound] |  |  |  |  |  |  |  |  |  |  |  |  |  |  |  |  |  |  |  |  | AUC 0-5 GIP [3, 4]: 897.03 pg·h/mL; AUC 0-5 GLP-1 (active) [3, 4]: 20.5 pmol·h/L; AUC 0-5 Insulin [3, 4]: 138.33 uU*h/ml; AUC 0-5 glucose [3, 4]: 543.7 mg·h/dL; GIP (peak) [3, 4]: 235 pg/mL; GLP-1 (active) (peak) [3, 4]: 6.21 pmol/L; Glucose (peak) [3, 4]: 121.6 mg/dL; Insulin (peak) [3, 4]: 40.4 uU/ml; Time (h) to peak, GIP [3, 4]: 3 h; Time (h) to peak, GLP-1 (active) [3, 4]: 0.5 h; Time (h) to peak, glucose [3, 4]: 1.5 h; Time (h) to peak, insulin [3, 4]: 2 h; active GLP-1 concentration ([3]; healthy adult male volunteers): a tendency toward increase; hyperglycemia after breakfast, lunch, and evening meal ([3]; healthy adult male volunteers): suppressed; insulin secretion ([3]; healthy adult male volunteers): inhibition of insulin secretion; total GIP concentration ([3]; healthy adult male volunteers): inhibition of increase in total GIP concentration; total GLP-1 concentration ([3]; healthy adult male volunteers): an increase in total GLP-1 concentration
